# Test results reported in patent publication US9549967B2, “Regulation of sodium channels by PLUNC proteins” (The University of North Carolina at Chapel Hill, priority 2009, dated 2017).
# T1: ENaC (Homo sapiens, UniProt P37088+P51168+P51170)
# T1 construct: endogenous in cells; host or cells: primary human bronchial epithelial cultures
# T1 sequence (P37088 1-669): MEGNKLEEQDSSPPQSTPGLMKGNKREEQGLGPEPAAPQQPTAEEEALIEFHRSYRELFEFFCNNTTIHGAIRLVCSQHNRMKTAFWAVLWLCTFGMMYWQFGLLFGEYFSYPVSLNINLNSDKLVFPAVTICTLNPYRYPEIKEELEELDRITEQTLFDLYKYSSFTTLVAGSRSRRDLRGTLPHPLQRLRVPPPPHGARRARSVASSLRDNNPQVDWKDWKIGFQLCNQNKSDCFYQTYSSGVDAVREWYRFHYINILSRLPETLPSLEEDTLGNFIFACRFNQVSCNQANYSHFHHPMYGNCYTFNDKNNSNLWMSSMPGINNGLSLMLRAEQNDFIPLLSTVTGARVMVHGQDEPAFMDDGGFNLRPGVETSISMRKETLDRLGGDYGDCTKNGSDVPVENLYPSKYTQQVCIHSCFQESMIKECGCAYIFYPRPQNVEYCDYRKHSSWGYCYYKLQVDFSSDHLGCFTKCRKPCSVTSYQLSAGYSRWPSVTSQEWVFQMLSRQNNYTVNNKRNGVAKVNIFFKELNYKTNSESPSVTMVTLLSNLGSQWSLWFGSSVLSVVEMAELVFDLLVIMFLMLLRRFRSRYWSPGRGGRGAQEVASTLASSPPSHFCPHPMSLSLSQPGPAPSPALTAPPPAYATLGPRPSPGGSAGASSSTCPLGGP
# T1 sequence (P51168 1-640): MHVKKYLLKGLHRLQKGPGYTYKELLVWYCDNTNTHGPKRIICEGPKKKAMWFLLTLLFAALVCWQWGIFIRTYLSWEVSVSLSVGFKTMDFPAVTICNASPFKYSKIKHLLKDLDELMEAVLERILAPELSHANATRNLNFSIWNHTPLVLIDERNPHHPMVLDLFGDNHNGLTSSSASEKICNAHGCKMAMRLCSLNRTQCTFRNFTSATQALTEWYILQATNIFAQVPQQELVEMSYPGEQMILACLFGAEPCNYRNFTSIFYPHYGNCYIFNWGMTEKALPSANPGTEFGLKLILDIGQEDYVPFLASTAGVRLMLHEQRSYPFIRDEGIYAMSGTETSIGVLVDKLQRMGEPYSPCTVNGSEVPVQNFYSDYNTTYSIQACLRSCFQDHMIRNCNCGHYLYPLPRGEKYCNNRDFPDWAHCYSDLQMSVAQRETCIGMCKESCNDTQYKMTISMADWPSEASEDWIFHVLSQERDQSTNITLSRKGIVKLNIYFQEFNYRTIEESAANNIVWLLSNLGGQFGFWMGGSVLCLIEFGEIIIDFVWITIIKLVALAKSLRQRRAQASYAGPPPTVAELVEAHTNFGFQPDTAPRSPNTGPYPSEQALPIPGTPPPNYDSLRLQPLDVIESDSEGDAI
# T1 sequence (P51170 1-649): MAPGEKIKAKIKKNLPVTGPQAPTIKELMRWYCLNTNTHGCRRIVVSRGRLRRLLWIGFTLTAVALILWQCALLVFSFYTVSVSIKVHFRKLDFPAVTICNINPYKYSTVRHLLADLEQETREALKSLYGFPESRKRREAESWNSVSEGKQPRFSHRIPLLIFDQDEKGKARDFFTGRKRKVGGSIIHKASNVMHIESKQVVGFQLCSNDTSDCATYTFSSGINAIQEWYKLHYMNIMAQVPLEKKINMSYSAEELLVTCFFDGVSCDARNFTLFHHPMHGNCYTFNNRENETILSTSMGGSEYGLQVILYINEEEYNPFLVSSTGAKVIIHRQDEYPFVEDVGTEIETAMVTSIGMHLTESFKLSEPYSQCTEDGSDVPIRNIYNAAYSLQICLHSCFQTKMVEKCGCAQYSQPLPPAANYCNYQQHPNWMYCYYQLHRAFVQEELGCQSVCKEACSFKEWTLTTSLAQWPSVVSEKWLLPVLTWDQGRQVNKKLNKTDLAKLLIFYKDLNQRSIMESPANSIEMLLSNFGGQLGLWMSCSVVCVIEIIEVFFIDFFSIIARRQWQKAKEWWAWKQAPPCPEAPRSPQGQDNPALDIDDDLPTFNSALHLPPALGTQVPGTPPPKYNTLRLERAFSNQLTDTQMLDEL
# T2: αENaC (Homo sapiens, UniProt P37088)
# T2 construct: expressed in transfected cells; host or cells: JME nasal epithelial cells (passaged, no endogenous ENaC), lentiviral vector pQCXIN
# T2 sequence (P37088 1-669): T1 sequence (P37088 1-669)
# B1: Texas red-rSPLUNC1: recombinant SPLUNC1 labeled with Texas red (conjugate)
# chain: QFGGLPVPLDQTLPLNVNPALPLSPTGLAGSLTNALSNGLLSGGLLGILENLPLLDILKPGGGTSGGLLGGLLGKVTSVIPGLNNIIDIKVTDPQLLELGLVQSPDGHRLYVTIPLGIKLQVNTPLVGASLLRLAVKLDITAEILAVRDKQERIHLVLGDCTHSPGSLQISLLDGLGPLPIQGLLDSLTGILNKVLPELVQGNVCPLVNEVLRGLDITLVHDIVNMLIHGLQFVIKV
# modifications: left off: small tags and cut ends
# Tests used:
# ENaC [1] = molecular target: T1, ENaC; test: Transepithelial electrical resistance of human bronchial epithelial cultures (EVOM); format: cell-based; conditions: washed cultures; 50 ng/ml SPLUNC1 for 30 min or amiloride; effects not additive
# Excerpt: (§1) Tissue procurement and cell culture: Cells were harvested by enzymatic digestion from human bronchial tissue as previously described under a protocol approved by the UNC School of Medicine IRB (Tarran et al., J. Gen. Physiol. 127:591 (2006)). Human excess donor lungs and excised recipient lungs were obtained at the time of lung transplantation from portions of main stem or […] bronchi and cells were harvested by enzymatic digestion. All preparations were maintained at an air-liquid interface in a modified bronchial epithelial medium and used 2-5 weeks after seeding on 12 mm T-Clear inserts (Corning Costar) coated with human placental type VI collagen (Sigma). Phosphate buffered saline (PBS) was used for washing human bronchial epithelial culture mucosal surfaces.
# (§2) Microelectrode studies. A single-barreled potential difference-sensing electrode was placed in the airway surface liquid by micromanipulator and used in conjunction with a macroelectrode in the serosal solution to measure transepithelial voltage using a voltmeter (World Precision Instruments). […] Transepithelial resistance was routinely measured using the EVOM system (WPI) as previously described (Tarran et al., J. Gen. Physiol. 127:591 (2006)).
# ENaC [2] = molecular target: T1, ENaC; test: Transepithelial voltage under thin film conditions in human bronchial epithelial cultures (microelectrode); format: cell-based
# Excerpt: as §1, §2
# trypsin = test: Cell-free fluorogenic assay of BGAR-MCA cleavage by trypsin; format: biochemical; conditions: 2 U/ml aprotinin
# Experimental: (§3) For cell-free assays, reactions were carried out in 50 μl Ringer in a 96 well plate format with 100 μM BGAR-MCA. To measure endogenous protease activity in human bronchial epithelial cultures, 30 μl Ringer with 100 μM BGAR-MCA were placed directly onto the mucosal surfaces of human bronchial epithelial cultures grown on 12 mm T-clear inserts and the cultures were assayed in 12 well plates.
# serine proteases = test: Endogenous protease activity (BGAR-MCA cleavage) on mucosal surfaces of human bronchial epithelial cultures; format: cell-based
# Experimental: as §3
# αENaC = molecular target: T2, αENaC; test: Texas red-SPLUNC1 binding assay on JME cells expressing yfp-αENaC; conditions: polarized JME cells
# Experimental: JME cells were incubated with varying concentrations of Texas red-labeled SPLUNC1 for 30 min followed by a 5× wash with PBS. After this time images were acquired with a Nikon Ti-S inverted microscope and were quantified to obtain specific and non-specific binding using Image J. Data were then fitted with a Hill Plot to obtain the Kd.
# JME nasal epithelial cells express functional ENaCs (Tong et al., Am. J. Physiol. Lung Cell. Mol. Physiol. 287:L928 (2004)). However, this attribute is lost after several passages. Thus, passaged JME cells that no longer expressed ENaC were stably infected with a lentivirus containing yfp-αENaC or an empty vector as a control and the presence or absence of αENaC was confirmed using an antibody that was constructed “in-house” that was directed against αENaC (FIG. 8).
# Recombinant SPLUNC1 was labeled with Texas red according to the manufacturer's instructions (Pierce) and was freshly labeled on the day of each binding experiment. […] After this time yfp (514 nm excitation) and Texas red fluorescence (590 nm excitation) were imaged under a 60× water objective on a Nikon Ti-S inverted microscope equipped with an Orca CCD camera (Hamamatsu) switchable filter wheels (Ludl). Background fluorescence was subtracted from all images and the mean thresholded intensity was quantified to obtain specific and non-specific binding using Image J.
molecule,measurement,setting,value
"N=C(N)NC(=O)c1nc(Cl)c(N)nc1N [amiloride, reference compound]",increase of the transepithelial electrical resistance,ENaC [1],~33%
same,reduction of the transepithelial voltage,"ENaC [2]; n=12, FIG. 4 legend: 100 mM amiloride",54%
aprotinin [reference compound],inhibition of trypsin activity,trypsin,~100%
same,rate of inhibition of the transepithelial voltage,"ENaC [2]; rSPLUNC1 vs aprotinin addition, effects not additive",identical rates
same,spontaneous BGAR-MCA cleavage on mucosal surfaces,serine proteases,inhibited
B1,Kd,"αENaC; 30 min incubation, Hill fit",0.055 µg/mL
same,specific (yfp-αENaC) binding vs non-specific (empty vector) binding,αENaC; binding isotherm,significantly greater and saturable
